Results from patent US12036231B2, “Cyclic dinucleotides as agonists of stimulator of interferon gene dependent signalling” (Board of Regents, The University of Texas System, priority 2017, dated 2024).

Key:
STING receptor [1] = biological target: T1, STING receptor (Homo sapiens, UniProt Q86WV6, G230A/H232R/R293Q/R71H); experiment: THP-1 Dual assay, NF-κB pathway (SEAP reporter); format: cell-based; conditions: 18 h incubation
T1 construct: host or cells: THP-1 Dual cells (human monocytic THP-1 with NF-kB-SEAP and IRF-Lucia reporters)
T1 sequence (Q86WV6 whole entry R71H/G230A/H232R/R293Q): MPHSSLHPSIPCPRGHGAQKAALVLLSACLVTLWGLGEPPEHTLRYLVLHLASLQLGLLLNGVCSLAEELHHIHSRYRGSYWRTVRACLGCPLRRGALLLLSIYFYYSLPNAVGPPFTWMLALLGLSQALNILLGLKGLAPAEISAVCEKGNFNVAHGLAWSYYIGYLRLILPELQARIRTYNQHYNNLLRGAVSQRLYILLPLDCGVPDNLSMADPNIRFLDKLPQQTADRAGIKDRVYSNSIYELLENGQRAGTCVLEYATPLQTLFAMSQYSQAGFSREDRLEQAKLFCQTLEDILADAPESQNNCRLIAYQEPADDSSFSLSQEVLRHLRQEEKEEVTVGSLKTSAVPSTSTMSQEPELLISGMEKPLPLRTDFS
Description: (§1) The INVIVOGEN® THP-1 Dual™ assay (catalog code: thpd-nfis) was used to evaluate the listed compounds as agonist of the STING receptor. The THP-1 Dual™ cells are derived from the human monocytic cell line THP-1 by stable integration of two inducible reporter constructs. This assay enables simultaneous study of the two main signaling pathways for STING: (a) the NF-κB pathway, by monitoring the activity of secreted embryonic alkaline phosphatase (SEAP); and (b) the Interferon regulatory factor (IRF) pathway, by assessing the activity of a secreted luciferase (Lucia™).
(§2) The procedure as set forth by the manufacturer was followed, with the following modifications: (1) plates are incubated 18 h after addition of cell suspension, and (2) the optional differentiation step is not employed. Tables 1 and 2. Biological Activity

STING receptor [2] = biological target: T1, STING receptor; experiment: THP-1 Dual assay, IRF pathway (secreted Lucia luciferase reporter; IRF3 activation); format: cell-based; conditions: 18 h incubation
Description: as §1, §2

MT4-2D cells = experiment: Mouse Ductal Pancreatic Cancer Assay (subcutaneous MT4-2D tumors, intra-tumoral injection); format: in vivo, C57BL/6J mice; conditions: 5 ug intra-tumorally on day 15
Method: Mouse Ductal Pancreatic Cancer Assay
The procedure of Boj et a. […] 2.5×10^5 MT4-2D cells were injected subcutaneously on the right flank of male 6 week old C57BL/6J mice. 5 ug of the indicated STING agonist was injected intra-tumorally on day 15 in a volume of 50 ul.

[3] = day 0 post challenge (before dosing)
[4] = day 4 post challenge (before dosing)
[5] = day 6 post challenge (before dosing)
[6] = day 8 post challenge (before dosing)
[7] = day 10 post challenge (before dosing)
[8] = day 12 post challenge (before dosing)
[9] = day 14 post challenge (before dosing)
[10] = day 15 post challenge (day of dosing)

Structure (SMILES)	Fold induction of NF-κB activation THP-1 Dual cells (STING receptor [1]; 5 mg/mL STING agonist) [fold]	Fold induction of IRF3 activation in THP-1 Dual cells (STING receptor [2]; 1 mg/mL STING agonist) [fold]	Fold induction of IRF3 activation in THP-1 Dual cells (STING receptor [2]; 5 mg/mL STING agonist) [fold]	Fold induction of NF-κB activation THP-1 Dual cells (STING receptor [1]; 0.1 mg/mL STING agonist) [fold]	Fold induction of NF-κB activation THP-1 Dual cells (STING receptor [1]; 0.5 mg/mL STING agonist) [fold]	Fold induction of NF-κB activation THP-1 Dual cells (STING receptor [1]; 1 mg/mL STING agonist) [fold]	Fold induction of NF-κB activation THP-1 Dual cells (STING receptor [1]; 10 mg/mL STING agonist) [fold]	Fold induction of IRF3 activation in THP-1 Dual cells (STING receptor [2]; 0.1 mg/mL STING agonist) [fold]	Fold induction of IRF3 activation in THP-1 Dual cells (STING receptor [2]; 0.5 mg/mL STING agonist) [fold]	Fold induction of IRF3 activation in THP-1 Dual cells (STING receptor [2]; 10 mg/mL STING agonist) [fold]	Tumor Vol (MT4-2D cells; [3]) [mm^3]	Tumor Vol (MT4-2D cells; [4]) [mm^3]	Tumor Vol (MT4-2D cells; [5]) [mm^3]	Tumor Vol (MT4-2D cells; [6]) [mm^3]	Tumor Vol (MT4-2D cells; [7]) [mm^3]	Tumor Vol (MT4-2D cells; [8]) [mm^3]	Tumor Vol (MT4-2D cells; [9]) [mm^3]	Tumor Vol (MT4-2D cells; [10]) [mm^3]	Tumor Vol (MT4-2D cells; day 16 post challenge) [mm^3]	Tumor Vol (MT4-2D cells; day 22 post challenge) [mm^3]	further results
Nc1ncnc2c1ccn2[C@@H]1O[C@@H]2COP(=O)(S)O[C@@H]3[C@H](O)[C@@H](CO[P@@](=O)(S)O[C@@H]2[C@H]1O)O[C@H]3n1cnc2c(N)ncnc21 (single isomer, unassigned) [Example 1a]	2.77	9.77	112.64	–	–	–	–	–	–	–	–	–	–	–	–	–	–	–	–	–	–
Nc1ncnc2c1ccn2[C@@H]1O[C@@H]2COP(=O)(S)O[C@@H]3[C@H](O)[C@@H](CO[P@@](=O)(S)O[C@@H]2[C@H]1O)O[C@H]3n1cnc2c(N)ncnc21 (single isomer, unassigned) [Example 1b]	1.29	3.52	25.91	0.97	0.99	1.01	3.71	0.99	1.88	87.63	–	–	–	–	–	–	–	–	–	–	–
Nc1nc2c(ncn2[C@@H]2O[C@@H]3COP(=O)(O)O[C@H]4[C@@H](O)[C@H](n5cnc6c(=O)[nH]c(N)nc65)O[C@@H]4COP(=O)(O)O[C@H]3[C@H]2O)c(=O)[nH]1 [3′,5′-c-di-GMP, cyclic di-GMP (guanosine 5′-monophosphate), reference compound]	1.02	1.32	2.87	0.99	0.98	0.97	1.10	1.07	1.26	5.93	–	–	–	–	–	–	–	–	–	–	–
Nc1ncnc2c1ncn2[C@@H]1O[C@@H]2COP(=O)(S)O[C@@H]3[C@H](O)[C@@H](CO[P@@](=O)(S)O[C@H]2[C@H]1F)O[C@H]3n1cnc2c(N)ncnc21 (stereo partly drawn) [Example 2a, (1R,6R,8R,9R,10R,12R,15R,17R,18R)-8,17-di(6-amino-9H-purin-9-yl)-9-fluoro-18-hydroxy-3,12-dimercapto-2,4,7,11,13,16-hexaoxa-3λ^5, 12λ^5-diphosphatricyclo-[13.2.1.0^6,10]octadecane-3,12-dione]	–	–	–	–	–	–	–	–	–	–	0.0	29.2	64.3	84.3	103.3	125.9	113.8	132.1	134.0	91.6	Tumor Vol (MT4-2D cells; day 17 post challenge): 122.7 mm^3; Tumor Vol (MT4-2D cells; day 18 post challenge): 82.8 mm^3; Tumor Vol (MT4-2D cells; day 20 post challenge): 72.8 mm^3; Tumor Vol (MT4-2D cells; day 25 post challenge): 124.0 mm^3; Tumor Vol (MT4-2D cells; day 27 post challenge): 142.0 mm^3; Tumor Vol (MT4-2D cells; day 29 post challenge): 163.1 mm^3; Tumor Vol (MT4-2D cells; day 32 post challenge): 217.7 mm^3
Nc1ncnc2c1ncn2[C@@H]1O[C@@H]2COP(=O)(S)O[C@@H]3[C@H](O)[C@@H](CO[P@@](=O)(S)O[C@H]2[C@H]1F)O[C@H]3n1cnc2c(N)ncnc21 (stereo partly drawn) [Example 2b, (1R,6R,8R,9R,10R,12R,15R,17R,18R)-8,17-di(6-amino-9H-purin-9-yl)-9-fluoro-18-hydroxy-3,12-dimercapto-2,4,7,11,13,16-hexaoxa-3λ^5, 12λ^5-diphosphatricyclo-[13.2.1.0^6,10]octadecane-3,12-dione]	–	–	–	–	–	–	–	–	–	–	0.0	28.4	53.9	66.5	87.4	98.3	106.6	114.7	130.8	64.9	Tumor Vol (MT4-2D cells; day 17 post challenge): 128.3 mm^3; Tumor Vol (MT4-2D cells; day 18 post challenge): 90.4 mm^3; Tumor Vol (MT4-2D cells; day 20 post challenge): 115.3 mm^3; Tumor Vol (MT4-2D cells; day 25 post challenge): 70.4 mm^3; Tumor Vol (MT4-2D cells; day 27 post challenge): 80.7 mm^3; Tumor Vol (MT4-2D cells; day 29 post challenge): 99.6 mm^3; Tumor Vol (MT4-2D cells; day 32 post challenge): 102.6 mm^3
Nc1ncnc2c1ccn2[C@@H]1O[C@@H]2CO[P@@](=O)(S)O[C@@H]3[C@@H](O)[C@H](n4cnc5c(N)ncnc54)O[C@@H]3COP(=O)(S)O[C@@H]1[C@@H]2O (stereo partly drawn) [Example 3b, (1R,6R,8R,9R,10R,12R,15R,17R,18R)-17-(4-amino-7H-pyrrolo[2,3-d]pyrimidin-7-yl)-8-(6-amino-9H-purin-9-yl)-9,18-dihydroxy-3,12-dimercapto-2,4,7,11,13,16-hexaoxa-3λ^5, 12λ^5-diphosphatricyclo[13.2.1.0^6,10]octadecane-3,12-dione]	1.08	1.56	5.05	0.98	0.99	1.00	1.14	1.38	1.48	6.70	–	–	–	–	–	–	–	–	–	–	–
Nc1ncnc2c1ncn2[C@@H]1O[C@@H]2COP(O)(=S)O[C@@H]3C(O)[C@@H](COP(O)(=S)O[C@H]2[C@H]1O)O[C@H]3n1cnc2c(N)ncnc21 (stereo partly drawn) [ML-RR-CDA, dithio-[Rp,Sp]-cyclic-[A(2′,5′)p-A(3′,5′)p], reference compound]	–	–	–	–	–	–	–	–	–	–	0.0	19.0	56.3	81.9	84.5	107.3	110.9	125.6	193.2	147.2	Tumor Vol (MT4-2D cells; day 25 post challenge): 154.0 mm^3; Tumor Vol (MT4-2D cells; day 27 post challenge): 241.4 mm^3; Tumor Vol (MT4-2D cells; day 29 post challenge): 198.5 mm^3; Tumor Vol (MT4-2D cells; day 32 post challenge): 250.1 mm^3
